Reference: BigSolDB 2.1

O=C(O)/C=C/C(=O)O.OCCOCCN1CCN(C2=Nc3ccccc3Sc3ccccc32)CC1.OCCOCCN1CCN(C2=Nc3ccccc3Sc3ccccc32)CC1
solubility (mole fraction)
Settings	283.15 K	288.15 K	293.15 K	298.15 K	303.15 K	308.15 K	313.15 K	318.15 K	323.15 K
in 2-butanone	0.000134	0.000164	0.000204	0.000251	0.000309	0.000382	0.000462	0.000581	0.000721
in MIBK	0.000128	0.000153	0.000181	0.000224	0.000273	0.000328	0.000398	0.000475	0.000571
in MTBE	4.36e-05	5.55e-05	6.74e-05	8.27e-05	0.000107	0.00013	0.000161	0.000192	0.000241
in THF	0.000705	0.000873	0.00108	0.00133	0.00167	0.00208	0.00261	0.00323	0.00409
in dichloromethane	0.000174	0.000213	0.000279	0.000365	0.00046	0.000597	0.000775	–	–
in ethyl formate	8.6e-05	0.000105	0.000125	0.000158	0.000197	0.00024	0.000291	0.000362	0.000445
in isopropyl acetate	3.95e-05	4.7e-05	5.77e-05	6.96e-05	8.3e-05	0.000104	0.000127	0.000158	0.000191
in n-heptane	1.59e-05	1.94e-05	2.44e-05	3.02e-05	3.61e-05	4.57e-05	–	6.96e-05	–
in n-hexane	1.46e-05	1.77e-05	2.17e-05	2.75e-05	3.3e-05	4.17e-05	5.15e-05	6.53e-05	8.16e-05
in n-propanol	0.000244	0.000317	0.000396	0.000497	0.000614	0.000797	0.00101	0.00126	0.0016
in toluene	3.01e-05	3.49e-05	4.19e-05	4.98e-05	5.82e-05	7.09e-05	8.5e-05	0.000102	0.000121
